The results in this text go back to DBAASP.

Common to all, as to assay: ≥ marks a high value that may be exact or a test limit, other limits are often not marked, values filed in µg/mL are converted to µM
The subject of experiment [1] is Acinetobacter baumannii MTCC 9829.
Experiment [2] deals with Alcaligenes faecalis MTCC 1937.
The subject of experiment [3] is Alkalihalobacillus alcalophilus MTCC 860.
For experiment [4], the system named is Bordetella bronchiseptica MTCC 6837.
The subject of experiment [5] is Citrobacter freundii MTCC 1658.
The subject of experiment [6] is Citrobacter koseri MTCC 1657.
In experiment [7] the test system is Corynebacterium glutamicum MTCC 2679.
The test system of experiment [8] is Enterococcus faecalis MTCC 439.
Experiment [9] deals with Escherichia coli K12 MG1655.
Experiment [10] has as its system Haemophilus influenzae MTCC 621.
Experiment [11] has as its system Klebsiella aerogenes MTCC 111.
The subject of experiment [12] is Klebsiella oxytoca MTCC 2275.
Experiment [13] concerns Klebsiella pneumoniae MTCC 7407.
The subject of experiment [14] is Pluralibacter gergoviae MTCC 3826.
Experiment [15] has as its system Proteus mirabilis MTCC 3158.
Experiment [16] has as its system Proteus vulgaris MTCC 1771.
The test system of experiment [17] is Pseudomonas aeruginosa MTCC 3542.
The subject of experiment [18] is Salmonella enterica MTCC 9844.
Experiment [19] has as its system Salmonella enterica subsp. enterica serovar Typhimurium ATCC 14028.
Experiment [20] deals with Shigella boydii MTCC 11947.
Experiment [21] has as its system Shigella flexneri MTCC 1457.
Experiment [22] has as its system Staphylococcus aureus MTCC 3160.
Experiment [23] has as its system Staphylococcus haemolyticus MTCC 3383.
Experiment [24] deals with Stenotrophomonas maltophilia MTCC 1890.
The test system of experiment [25] is Vibrio cholerae MTCC 3904.
The subject of experiment [26] is Pseudomonas aeruginosa Ps4.
The test system of experiment [27] is Escherichia coli ATCC 25922.
The next experiment relates to Candida albicans.
For the next experiment, the system named is Escherichia coli MG1655.
Experiment [28] relates to Pseudomonas aeruginosa PAO1.
Experiment [29] deals with Staphylococcus aureus ATCC 25923.

Converted amounts (≈) assume the structure as drawn. Where only a bound is given, the exact number is not on record here.

As for `CC[C@H](C)[C@H](NC(=O)[C@@H](N)CCC(=O)O)C(=O)N[C@@H](CC(C)C)C(=O)N[C@@H](CO)C(=O)N[C@@H](CCCCN)C(=O)N[C@@H](C)C(=O)N[C@@H](CC(C)C)C(=O)N[C@@H](CO)C(=O)N[C@@H](C)C(=O)N[C@@H](CC(C)C)C(=O)N[C@@H](CO)C(=O)N1CCC[C@H]1C(=O)N[C@@H](CC(C)C)C(=O)N[C@@H](C)C(=O)N[C@@H](CC(N)=O)C(=O)O` [EILSKALSALSPLAN], the MIC in [1], in [2], in experiment [3], in experiment [4], in experiment [5] and in experiment [6] was no less than 83.8 µM throughout. Further, the MIC in [7], in experiment [8], in experiment [9], in experiment [10], in [11] and in [12] was no less than 83.8 µM throughout. Moreover, the MIC in [13], in experiment [14], in experiment [15], in experiment [16], in experiment [17] and in experiment [18] was no less than 83.8 µM throughout. For the same compound, the MIC in [19] is greater than 83.8 µM; in experiment [20], no less than 83.8 µM; in experiment [21], no less than 83.8 µM; in experiment [22] it was no less than 83.8 µM; in [23] it was no less than 83.8 µM; in experiment [24], no less than 83.8 µM. In addition, in experiment [25], the MIC was no less than 83.8 µM.

Take `CC[C@H](C)[C@H](NC(=O)[C@H](CCCCN)NC(=O)[C@H](CCCN=C(N)N)NC(=O)[C@H](CCC(N)=O)NC(=O)[C@H](Cc1c[nH]c2ccccc12)NC(=O)[C@@H](N)Cc1ccccc1)C(=O)N[C@@H](CCCN=C(N)N)C(=O)N[C@@H](CCCCN)C(=O)N[C@H](C(=O)N[C@@H](CCCCN)C(=O)N[C@@H](CCCCN)C(N)=O)C(C)C` [FWQRKIRKVKK]: the MIC in experiment [26] was no less than 165 µM.

With `CC[C@H](C)[C@H](NC(=O)[C@H](CCCN=C(N)N)NC(=O)[C@@H](NC(=O)[C@H](CC(N)=O)NC(=O)[C@H](CCCN=C(N)N)NC(=O)[C@H](CCC(N)=O)NC(=O)[C@H](Cc1c[nH]c2ccccc12)NC(=O)[C@@H](N)Cc1ccccc1)[C@@H](C)CC)C(=O)N[C@@H](CCCN=C(N)N)C(=O)N[C@@H](CCCN=C(N)N)C(N)=O` [FWQRNIRIRR], the MIC was 86.5 µM (≈ 125 µg/mL) in experiment [27] and no less than 173 µM in [26].

Regarding `CC[C@H](C)[C@H](NC(=O)[C@@H]1CCCN1C(=O)[C@H](CCCN=C(N)N)NC(=O)[C@H](CCC(N)=O)NC(=O)[C@H](Cc1c[nH]c2ccccc12)NC(=O)[C@@H](N)Cc1ccccc1)C(=O)N[C@@H](CCCN=C(N)N)C(=O)N[C@@H](CCCCN)C(=O)N[C@H](C(=O)N[C@@H](CCCN=C(N)N)C(N)=O)C(C)C` [FWQRPIRKVR], the MIC in experiment [26] is no less than 180 µM.

For `CSCC[C@H](NC(=O)[C@@H](NC(=O)[C@H](CCCCN)NC(=O)[C@H](C)NC(=O)[C@H](CC(C)C)NC(=O)CN)C(C)C)C(=O)N[C@@H](CCCN=C(N)N)C(=O)N[C@@H](CCCCN)C(=O)N[C@H](C(=O)N[C@@H](CC(C)C)C(=O)NCC(=O)N[C@@H](Cc1ccc(O)cc1)C(=O)N[C@@H](CC(C)C)C(=O)N[C@@H](CCCN=C(N)N)C(=O)N[C@@H](CC(N)=O)C(=O)N[C@H](C(=O)N[C@@H](Cc1ccc(O)cc1)C(=O)N[C@@H](CCCCN)C(N)=O)C(C)C)C(C)C` [GLAKVMRKVLGYLRNVYK], the MIC against Candida albicans is 22.6 µM (≈ 47.7 µg/mL); in the experiment on Escherichia coli MG1655, 2.83 µM (≈ 5.96 µg/mL); in [28], 8 µM (≈ 16.9 µg/mL); in experiment [29] it was 5.66 µM (≈ 11.9 µg/mL).

With `CC[C@H](C)[C@H](NC(=O)CNC(=O)[C@H](CCCCN)NC(=O)[C@H](C)NC(=O)[C@H](C)NC(=O)[C@H](CCCCN)NC(=O)[C@H](Cc1cnc[nH]1)NC(=O)[C@@H](NC(=O)[C@H](C)NC(=O)[C@H](CCCCN)NC(=O)[C@H](Cc1c[nH]c2ccccc12)NC(=O)CN)[C@@H](C)CC)C(=O)N[C@@H](Cc1cnc[nH]1)C(=O)N[C@H](C(=O)N[C@@H](Cc1ccc(O)cc1)C(=O)N[C@H](C(=O)N[C@@H](CC(N)=O)C(=O)O)C(C)C)[C@@H](C)O` [GWKAIHKAAKGIHTYVN], the MIC in experiment [1], in experiment [2], in experiment [3], in experiment [4], in [5] and in [6] was no less than 67.6 µM throughout. Further, the MIC in [7] was no less than 33.8 µM; in experiment [8], no less than 67.6 µM; in [9], no less than 67.6 µM; in [10] it was no less than 33.8 µM; in experiment [11] it was no less than 67.6 µM; in experiment [12] it was no less than 67.6 µM. The MIC in [13], in [14], in experiment [15], in experiment [16], in experiment [17] and in [18] was no less than 67.6 µM in each case. In addition, the MIC in [19] was greater than 67.6 µM; in experiment [20], no less than 67.6 µM; in experiment [21] it was no less than 67.6 µM; in experiment [22], no less than 67.6 µM; in experiment [23], no less than 67.6 µM; in experiment [24], no less than 67.6 µM. In experiment [25], this compound displayed an MIC of no less than 67.6 µM.

Consider `CC[C@H](C)[C@H](NC(=O)[C@@H](NC(=O)[C@H](C)NC(=O)[C@H](Cc1cnc[nH]1)NC(=O)[C@H](CC(C)C)NC(=O)[C@H](CCCN=C(N)N)NC(=O)[C@H](C)NC(=O)[C@H](Cc1ccc(O)cc1)NC(=O)[C@@H](NC(=O)[C@@H](N)CCCCN)C(C)C)C(C)C)C(=O)N[C@@H](CCCCN)C(=O)N[C@@H](CCCN=C(N)N)C(=O)N[C@@H](CC(C)C)C(=O)N[C@@H](Cc1cnc[nH]1)C(=O)N[C@@H](CCCN=C(N)N)C(=O)N[C@@H](CCCN=C(N)N)C(=O)N[C@@H](CC(C)C)C(=O)N[C@@H](Cc1cnc[nH]1)C(=O)O` [KVYARLHAVIKRLHRRLH], for which the MIC in experiment [1] is 14.1 µM (≈ 32 µg/mL); in experiment [2] it was no less than 56.5 µM; in [3], 14.1 µM (≈ 32 µg/mL); in experiment [4] it was 1.76 µM (≈ 4 µg/mL); in experiment [5], 14.1 µM (≈ 32 µg/mL); in experiment [6], 14.1 µM (≈ 32 µg/mL). For the same compound, the MIC was 0.882 µM (≈ 2 µg/mL) in experiment [7]; no less than 56.5 µM in experiment [8]; 7.06 µM (≈ 16 µg/mL) in experiment [9]; 1.76 µM (≈ 4 µg/mL) in [10]; no less than 56.5 µM in [11]; 3.53 µM (≈ 8 µg/mL) in experiment [12]. Also, the MIC was no less than 56.5 µM in [13]; no less than 56.5 µM in experiment [14]; no less than 56.5 µM in [15]; no less than 56.5 µM in [16]; no less than 56.5 µM in experiment [17]; 14.1 µM (≈ 32 µg/mL) in experiment [18]. The MIC is 14.1 µM (≈ 32 µg/mL) in [19]; 3.53 µM (≈ 8 µg/mL) in experiment [20]; 1.76 µM (≈ 4 µg/mL) in experiment [21]; no less than 56.5 µM in [22]; 1.76 µM (≈ 4 µg/mL) in [23]; no less than 56.5 µM in [24]. In experiment [25], this compound came in with an MIC of no less than 56.5 µM.

In [26], `CC[C@H](C)[C@H](NC(=O)[C@H](CC(N)=O)NC(=O)[C@H](CCCN=C(N)N)NC(=O)[C@H](CCC(N)=O)NC(=O)[C@H](Cc1c[nH]c2ccccc12)NC(=O)[C@@H](N)CCCCN)C(=O)N[C@@H](CCCN=C(N)N)C(=O)N[C@@H](CCCCN)C(=O)N[C@H](C(=O)N[C@@H](CCCN=C(N)N)C(=O)N[C@@H](CCCN=C(N)N)C(N)=O)C(C)C` [KWQRNIRKVRR] gave an MIC of no less than 162 µM.
